Results as given in BindingDB's records for doi:10.1016/j.bmc.2004.09.036 (University of Alabama At Birmingham, 2005).

Legend:
Assay in all cases: Protease Inhibition Assay
[1] = molecular target: T1, Genome polyprotein [1066-1250,R1182K]/[1394-1440,K1405R,D1408E] (dengue virus type 2, UniProt P14340+P27914, D1408E/K1405R/R1182K); conditions: pH 8.5; 23 °C
T1 construct: 1066-1250; 1394-1440
Experimental: (§1) All proteases were assayed by monitoring the cleavage of peptide substrate with fluorescent reporter at room temperature with a microtiter plate spectrofluorometer. Three different concentrations of inhibitors were used for calculating Ki values. Kinetic data were measured with an excitation wavelength of 390nm and emission wavelength of 460nm. From the initial velocities of the reactions Ki values were calculated by nonlinear regression method using the program EZ-fit (Perella Scientific).

Serine protease 1 = molecular target: T2, Serine protease 1 (Bos taurus, UniProt P00760); conditions: pH 7.6; 23 °C
T2 sequence (P00760 whole entry): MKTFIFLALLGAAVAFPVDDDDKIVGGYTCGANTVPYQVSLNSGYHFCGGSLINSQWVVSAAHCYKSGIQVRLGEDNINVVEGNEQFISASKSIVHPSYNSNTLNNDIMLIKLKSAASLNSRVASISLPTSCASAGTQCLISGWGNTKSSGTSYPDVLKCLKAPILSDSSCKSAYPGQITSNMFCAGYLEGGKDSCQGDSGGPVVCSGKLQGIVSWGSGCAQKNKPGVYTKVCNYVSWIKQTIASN
Experimental: as §1

[2] = molecular target: T3, Genome polyprotein [1424-1463]/[1502-1685] (West Nile virus, UniProt P06935); conditions: pH 8.5; 23 °C
T3 construct: 1424-1463; 1502-1685
T3 sequence (P06935 whole entry) 1: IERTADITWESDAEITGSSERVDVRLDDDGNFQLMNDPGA
T3 sequence (P06935 whole entry) 2: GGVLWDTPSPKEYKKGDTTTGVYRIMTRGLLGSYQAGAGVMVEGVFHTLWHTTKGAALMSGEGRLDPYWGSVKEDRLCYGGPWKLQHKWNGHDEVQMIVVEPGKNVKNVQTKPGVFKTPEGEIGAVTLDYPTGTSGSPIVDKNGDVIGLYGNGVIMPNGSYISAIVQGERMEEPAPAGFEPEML
Experimental: as §1

T1 sequence (P14340 1394-1440, looked up, stated change not applied): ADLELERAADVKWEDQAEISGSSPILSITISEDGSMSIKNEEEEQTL
T1 sequence (P27914 1066-1250, looked up, stated change not applied): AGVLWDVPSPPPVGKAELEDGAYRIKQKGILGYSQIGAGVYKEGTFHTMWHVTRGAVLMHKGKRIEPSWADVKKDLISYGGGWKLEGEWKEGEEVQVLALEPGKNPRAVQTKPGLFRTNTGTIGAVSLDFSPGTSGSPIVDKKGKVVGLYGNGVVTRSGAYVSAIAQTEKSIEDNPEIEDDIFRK

Work on `NC(N)=NN=Cc1ccc(C=NN=C(N)N)cc1` [biguanidine, 1] yielded a Ki [1] of 44 µM, a Ki (Serine protease 1) of 87 µM and a Ki [2] of 35 µM.
Work on `N=C(N)NN=CC=NN=C(N)N` [biguanidine, 2] yielded a Ki [1] of 423 µM, a Ki (Serine protease 1) of 155 µM and a Ki [2] of 337 µM.
Molecule `NC(N)=NNc1ccc(NNC(N)N)cc1` [biguanidine, 3] has a Ki [1] of 1780 µM, a Ki (Serine protease 1) of 51 µM and a Ki [2] of 1090 µM.
`NC(N)=NN=C1C(=O)Nc2ccccc21` [guanidine, 4] gave a Ki [1] of 23 µM, a Ki (Serine protease 1) of 4 µM and a Ki [2] of 16 µM.
`Cc1ccc(C(=NN=C(N)N)P(O)O)cc1` [guanidine, 5] was tested, and the Ki [1] was 14 µM, the Ki (Serine protease 1) was 3.2 µM and the Ki [2] was 13 µM.
